Measured values: patent US20230054976A1, “METHODS FOR INHIBITION OF ALPHA-SYNUCLEIN mRNA USING SMALL MOLECULES” (The Scripps Research Institute, priority 2019, published 2023)

System: SNCA mRNA
Assay: ASO-Bind-Map in cells (gapmer ASO, RT-qPCR)
Assay type: cell-based, human
Details: 200 nM, SH-SY5Y cells, RT-qPCR
Description: Mapping Synucleozid's binding site in cells with ASO-Bind-Map. SH-SY5Y cells were treated with vehicle (DMSO) or Synucleozid at 60% confluency overnight and were then transfected with a gapmer ASO (200 nM) with Lipofectamine RNAiMAX (Invitrogen) according to the manufacturer's instructions. Mock samples were generated by treating cells with transfection reagent lacking oligonucleotide. RNA extraction, cDNA synthesis and RT-qPCR were performed as described above after 48 h. Primers for SNCA mRNA in this experiment cover sequences upstream and downstream of the IRE; forward primer: [NT]; reverse primer [NT].

5′-CACTCCCAGT-3′ (2'-MOE phosphorothioate gapmer, further chemistry not given here) [ASO(1-10), reference compound]
reduction of SNCA mRNA levels by gapmer: ~50%

5′-TCCTTTACACC-3′ (2'-MOE phosphorothioate gapmer, further chemistry not given here) [ASO(29-39), reference compound]
reduction of SNCA mRNA levels by gapmer: ~50%
